O=C(Nc1ccncc1)c1cc(C(=O)Nc2ccncc2)cc(C(=O)Nc2ccncc2)c1
solubility (mole fraction)
Details | 283.15 K | 288.15 K | 293.15 K | 298.15 K | 303.15 K | 313.15 K | 323.15 K
in 2-butanone | 0.00034 | – | 0.000455 | – | 0.000519 | 0.000577 | 0.000675
in acetone | 6.66e-06 | – | 1.54e-05 | – | 1.86e-05 | 2.5e-05 | 3.64e-05
in acetonitrile | 7.35e-05 | – | 9.53e-05 | – | 0.00012 | 0.000146 | 0.000183
in dichloromethane | 3.08e-05 | 4.23e-05 | 5.41e-05 | 6e-05 | 6.77e-05 | – | –
in ethanol | 4.73e-05 | – | 6.07e-05 | – | 7.59e-05 | 8.97e-05 | 0.000104
in ethyl acetate | 0.000114 | – | 0.000137 | – | 0.000153 | 0.000178 | 0.000196
in isopropanol | 0.000265 | – | 0.000302 | – | 0.000355 | 0.000405 | 0.000431
in methanol | 5.21e-05 | – | 6.76e-05 | – | 9.65e-05 | 0.00013 | 0.000163
in n-butanol | 0.000156 | – | 0.0002 | – | 0.000235 | 0.000297 | 0.000371
in n-hexane | 1.15e-05 | – | 2.45e-05 | – | 4.03e-05 | 5.54e-05 | 6.95e-05
in n-propanol | 0.000217 | – | 0.000244 | – | 0.000255 | 0.000277 | 0.00029
in water | 4.65e-06 | – | 5.71e-06 | – | 7.83e-06 | 8.34e-06 | 1.6e-05
